How the values were obtained:
WNV NS2B/NS3^pro [1] = target: T1, WNV NS2B/NS3^pro (West Nile virus, UniProt P06935); assay: biochemical; settings: for inhibition at 10 µM: read-out: Inhibition of protease activity, primary inhibition test
T1 construct: tryptophan residues in the NS2B cofactor domain and in the NS3 protease domain; inferred from Ni-NTA purification and the pET-15b vector; made in house; host or cells: E. coli Lemo (DE3)

WNV NS2B/NS3^pro [2] = target: T1, WNV NS2B/NS3^pro; assay: biochemical; type: binding
YFV NS2B/NS3^pro [3] = target: T2, YFV NS2B/NS3^pro (Yellow fever virus, UniProt Q1X881); assay: biochemical; type: binding
T2 sequence (Q1X881 1485-1665 limits assumed): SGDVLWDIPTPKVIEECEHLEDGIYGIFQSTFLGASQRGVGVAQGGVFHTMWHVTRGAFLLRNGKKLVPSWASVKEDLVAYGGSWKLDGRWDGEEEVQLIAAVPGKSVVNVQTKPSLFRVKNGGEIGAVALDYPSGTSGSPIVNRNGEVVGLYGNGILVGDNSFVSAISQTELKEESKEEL
T2 sequence (Q1X881 1407-1446 partner limits assumed): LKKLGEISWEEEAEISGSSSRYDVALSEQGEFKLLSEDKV

YFV NS2B/NS3^pro [4] = target: T2, YFV NS2B/NS3^pro; assay: biochemical; settings: for inhibition at 10 µM: read-out: Inhibition of protease activity, primary inhibition test
DENV2 NS2B/NS3^pro [5] = target: T3, DENV2 NS2B/NS3^pro (Dengue virus type 2, UniProt P14340); assay: biochemical; type: binding
T3 construct: tryptophan residues in the NS2B cofactor domain and in the NS3 protease domain; inferred from Ni-NTA purification and the pET-15b vector; made in house; host or cells: E. coli Lemo (DE3)
T3 sequence (P14340 with tags, fused parts or gaps I1442G/L1443G/I1444G/R1445G/T1446S/DEL1448-1472/K1473G/Q1474G/R1475G): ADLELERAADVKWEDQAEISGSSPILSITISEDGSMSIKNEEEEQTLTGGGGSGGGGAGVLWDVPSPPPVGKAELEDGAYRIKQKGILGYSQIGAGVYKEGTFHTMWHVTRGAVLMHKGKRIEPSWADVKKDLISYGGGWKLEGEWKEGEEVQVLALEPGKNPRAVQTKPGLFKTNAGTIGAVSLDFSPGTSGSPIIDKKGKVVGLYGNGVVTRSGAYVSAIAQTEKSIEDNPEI

DENV2 NS2B/NS3^pro [6] = target: T3, DENV2 NS2B/NS3^pro; assay: biochemical; type: biochemical
ZIKV NS2B/NS3^pro [7] = target: ZIKV NS2B/NS3^pro; parameters: method as in PMID 33661906; settings: ZIKV NS2B/NS3pro, value ± STD; cited from earlier work
ZIKV NS2B/NS3^pro [8] = tested on: ZIKV NS2B/NS3^pro; parameters: method as in PMID 33661906; settings: ZIKV NS2B/NS3pro, cited from earlier work

T1 sequence (P06935 1502-1679 limits assumed): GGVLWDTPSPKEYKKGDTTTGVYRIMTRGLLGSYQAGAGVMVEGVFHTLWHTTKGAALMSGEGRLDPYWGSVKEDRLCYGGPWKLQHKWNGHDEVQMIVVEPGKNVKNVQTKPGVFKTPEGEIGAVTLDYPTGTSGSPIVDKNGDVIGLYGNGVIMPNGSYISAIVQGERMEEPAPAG
T1 sequence (P06935 1424-1463 partner limits assumed): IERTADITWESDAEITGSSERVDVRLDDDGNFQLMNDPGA

## COc1ccc(C2CC(=O)c3c(O)cc(OC4O[C@H](CO[C@@H]5O[C@@H](C)[C@H](O)[C@@H](O)[C@H]5O)[C@@H](O)[C@H](O)[C@H]4O)cc3O2)cc1O (some centres unmarked) [HSD, 3′,5,7-trihydroxy-4′-methoxy-flavanone-7-rhamnoglucoside]
WNV NS2B/NS3^pro [1]
  Concentration that inhibited 100% of the protease activity: 120 µM
  IC50: 50.7 ± 8.3 µM
  Inhibition Mode: noncompetitive
  LE (ligand efficiency): 0.14
  inhibition at 10 µM: ~30%
WNV NS2B/NS3^pro [2]
  Kd: 19.5 ± 2.8 µM
  Red edge excitation shift (REES) of the protease maximum fluorescence peak: no shift
YFV NS2B/NS3^pro [3]
  Kd: 29.5 ± 2.8 µM
  Red edge excitation shift (REES) of the protease maximum fluorescence peak: no shift
YFV NS2B/NS3^pro [4]
  Concentration that inhibited 100% of the protease activity: 140 µM
  IC50: 67.7 ± 7.5 µM
  Inhibition Mode: noncompetitive
  LE (ligand efficiency): 0.13
  inhibition at 10 µM: ~30%
DENV2 NS2B/NS3^pro [5]
  Kd: 20.9 ± 2.4 µM
  Red edge excitation shift (REES) of the protease maximum fluorescence peak: no shift
DENV2 NS2B/NS3^pro [6]
  Concentration that inhibited 100% of the protease activity: 140 µM
  IC50: 55.7 ± 2.5 µM
  Inhibition Mode: noncompetitive
  LE (ligand efficiency): 0.14

## COc1ccc(C2CC(=O)c3c(O)cc(O)cc3O2)cc1O (centres unmarked) [HST, 3′,5,7-trihydroxy-4′-methoxyflavanone]
WNV NS2B/NS3^pro [1]
  Concentration that inhibited 100% of the protease activity: 80 µM
  IC50: 4.27 µM
  Inhibition Mode: noncompetitive
  LE (ligand efficiency): 0.34
  inhibition at 10 µM: ~70%
WNV NS2B/NS3^pro [2]
  Kd: 13.5 ± 2 µM
  Red edge excitation shift (REES) of the protease maximum fluorescence peak: 15 nm
ZIKV NS2B/NS3^pro [7]
  Kd: 17.8 ± 2.9 µM
ZIKV NS2B/NS3^pro [8]; value ± STD
  IC50: 12.6 ± 1.3 µM
ZIKV NS2B/NS3^pro [8]
  Inhibition Mode: noncompetitive
  pIC50: 4.90
YFV NS2B/NS3^pro [3]
  Kd: 12.3 ± 2.2 µM
  Red edge excitation shift (REES) of the protease maximum fluorescence peak: 22 nm
YFV NS2B/NS3^pro [4]
  Concentration that inhibited 100% of the protease activity: 80 µM
  IC50: 2.04 µM
  Inhibition Mode: noncompetitive
  LE (ligand efficiency): 0.36
  inhibition at 10 µM: ~80%
DENV2 NS2B/NS3^pro [5]
  Kd: 18.7 ± 2.7 µM
  Red edge excitation shift (REES) of the protease maximum fluorescence peak: 11 nm
DENV2 NS2B/NS3^pro [6]
  Concentration that inhibited 100% of the protease activity: 140 µM
  IC50: 4.7 ± 0.8 µM
  Inhibition Mode: noncompetitive
  LE (ligand efficiency): 0.34

— paper PMC8539695, “Promising Natural Compounds against Flavivirus Proteases: Citrus Flavonoids Hesperetin and Hesperidin” (Plants, 2021)
